What was measured:
Format in all cases: in vivo, human
[1] = system: ARDS patients; assay: eICU (v1) dataset, statin intervention by Model C.4 subphenotype; design: Alive: unit not given here; conditions: for Alive / Dead / Mortality: no consideration to number doses and minimum dose size; for Mortality Rate: admitted with drug or initiated during ICU stay
Excerpt: The dataset from the eICU (v1) dataset was used for analysis. The intervention of interest was statins.
The individual statins were then examined with no consideration to number of doses and minimum dose size. Using this methodology, there were several differential responses identified (bolded and underlined cells as shown below in Table 81).

[2] = system: ARDS patients; assay: as above; design: Alive: unit not given here
[3] = system: ARDS patients; assay: eICU data filtered for patients without prior indication for statin use, statin intervention by subphenotype
Excerpt: This included patients with history of angina, congestive heart failure, coronary artery bypass grafting, multiple coronary artery bypass, hypertension requiring treatment, previous acute myocardial infarction, peripheral vascular disease, previous coronary intervention procedure, stroke, and/or transient ischemic attack.

[4] = system: COVID-19 patients; assay: CoDEX study dataset, dexamethasone vs placebo by Model C.4 subphenotype
Excerpt: The dataset from the CoDEX study was used for analysis. The CoDEX study involved treating COVID-19 patients with dexamethasone. K-means clustering was applied using Model C.4 described above in Table 70 and patients were separated into two clusters assigned to Subphenotype A and Subphenotype B. Tables 75A and 75B show the corresponding results.

[5] = system: ARDS patients; assay: ARMA-KARMA-LARMA study dataset, lisofylline and ketoconazole vs placebo by subphenotype; conditions: for Mortality: ARMA-KARMA-LARMA; for Dead 90: 1 0, Percent: mortality
Excerpt: The dataset from the ARMA-KARMA-LARMA study was used for analysis. Interventions in the study included lisofylline and ketoconazole.

[6] = system: ARDS patients; assay: LASRS study dataset, methylprednisolone vs placebo by Model C.4 subphenotype; conditions: for Dead 90: 1 0, Frequency: dead at 90 days; for Mortality: cohort receiving methylprednisolone
Excerpt: The dataset from the LASRS study was used for analysis. The LASRS study involved administration of corticosteroids, specifically methylprednisolone. K-means clustering was applied using Model C.4 described above in Table 70 and patients were separated into two subphenotypes based on the K-means cluster. Overall mortality was 40% in Subphenotype B and 28.57% in Subphenotype A (p = 0.3287). Within Subphenotype B, mortality rates were 40% regardless of whether the patient received methylprednisolone or a placebo; however, in Subphenotype A, mortality was 50% in the cohort receiving methylprednisolone, compared with 9.09% in the placebo cohort (p = 0.0382).

[7] = admitted with drug or initiated during ICU stay, All Patients
[8] = admitted with drug or initiated during ICU stay, Subphenotype A
[9] = admitted with drug or initiated during ICU stay, Subphenotype B
[10] = initiated during ICU stay, All Patients
[11] = initiated during ICU stay, Subphenotype A
[12] = initiated during ICU stay, Subphenotype B
[13] = on drug at time of ICU admit, All Patients
[14] = on drug at time of ICU admit, Subphenotype A
[15] = on drug at time of ICU admit, Subphenotype B
[16] = Patients administered lisofylline (title), Subphenotype A
[17] = Patients administered lisofylline (title), Subphenotype B
[18] = Subphenotype A patients, not dead at 90 days
[19] = Subphenotype B patients, not dead at 90 days
[20] = active arm vs placebo, Subphenotype A patients
[21] = active arm vs placebo, Subphenotype B patients

CC[C@H](C)C(=O)O[C@H]1C[C@@H](C)C=C2C=C[C@H](C)[C@H](CC[C@@H]3C[C@@H](O)CC(=O)O3)[C@H]21 [Lovastatin] was tested, and the Alive ([1]; All Patients) was 12, the Dead ([1]; All Patients) was 1 and the Mortality ([1]; All Patients) was 8%. It also gave an Alive ([1]; Subphenotype A) of 10, a Dead ([1]; Subphenotype A) of 0 and a Mortality ([1]; Subphenotype A) of 0%. The Alive ([1]; Subphenotype B) was 2, the Dead ([1]; Subphenotype B) was 1 and the Mortality ([1]; Subphenotype B) was 33%.

CC[C@H](C)C(=O)O[C@H]1C[C@H](O)C=C2C=C[C@H](C)[C@H](CC[C@@H](O)C[C@@H](O)CC(=O)O)[C@H]21 [Pravastatin] was tested, and the Alive ([1]; All Patients) was 29, the Dead ([1]; All Patients) was 6 and the Mortality ([1]; All Patients) was 17%. It also gave an Alive ([1]; Subphenotype A) of 20, a Dead ([1]; Subphenotype A) of 4 and a Mortality ([1]; Subphenotype A) of 17%. The Alive ([1]; Subphenotype B) was 9, the Dead ([1]; Subphenotype B) was 2 and the Mortality ([1]; Subphenotype B) was 18%.

CC(C)c1nc(N(C)S(C)(=O)=O)nc(-c2ccc(F)cc2)c1/C=C/[C@@H](O)C[C@@H](O)CC(=O)O [Rosuvastatin] was tested, and the Alive ([1]; All Patients) was 32, the Dead ([1]; All Patients) was 4 and the Mortality ([1]; All Patients) was 11%. The Alive ([1]; Subphenotype A) was 23, the Dead ([1]; Subphenotype A) was 2 and the Mortality ([1]; Subphenotype A) was 8%. The Alive ([1]; Subphenotype B) was 9, the Dead ([1]; Subphenotype B) was 2 and the Mortality ([1]; Subphenotype B) was 18%.

In the case of CC(C)c1c(C(=O)Nc2ccccc2)c(-c2ccccc2)c(-c2ccc(F)cc2)n1CC[C@@H](O)C[C@@H](O)CC(=O)O [atorvastatin], the Alive [2, 7] is reported as 290, the Dead [2, 7] is reported as 54 and the Alive [2, 8] is reported as 209. The Dead [2, 8] was 26, the “Mortality Rate” value [2, 8] was 11.06 and the Alive [2, 9] was 81. For the same compound, the Dead [2, 9] was 28, the “Mortality Rate” value [2, 9] was 25.69 and the Alive [2, 10] was 210. The Dead [2, 10] was 40, the “Mortality Rate” value [2, 10] was 16 and the Alive [2, 11] was 149. The Dead [2, 11] was 19, the “Mortality Rate” value [2, 11] was 11.31 and the Alive [2, 12] was 61. The Dead [2, 12] was 21, the “Mortality Rate” value [2, 12] was 25.61 and the Alive [2, 13] was 80. For the same compound, the Dead [2, 13] was 14, the “Mortality Rate” value [2, 13] was 14.89 and the Alive [2, 14] was 60. For the same compound, the Dead [2, 14] was 7, the “Mortality Rate” value [2, 14] was 10.45 and the Alive [2, 15] was 20. The Dead [2, 15] was 7, the “Mortality Rate” value [2, 15] was 25.93 and the Alive [3, 7] was 51. For the same compound, the Dead [3, 7] was 12, the “Mortality Rate” value [3, 7] was 19.05 and the Alive [3, 8] was 40. For the same compound, the Dead [3, 8] was 6, the “Mortality Rate” value [3, 8] was 13.04 and the Alive [3, 9] was 11. For the same compound, the Dead [3, 9] was 6, the “Mortality Rate” value [3, 9] was 35.29 and the Alive [3, 10] was 42. For the same compound, the Dead [3, 10] was 9, the “Mortality Rate” value [3, 10] was 17.65 and the Alive [3, 11] was 34. For the same compound, the Dead [3, 11] was 5, the “Mortality Rate” value [3, 11] was 12.82 and the Alive [3, 12] was 8. The Dead [3, 12] was 4, the “Mortality Rate” value [3, 12] was 33.33 and the Alive [3, 13] was 9. For the same compound, the Dead [3, 13] was 3, the “Mortality Rate” value [3, 13] was 25 and the Alive [3, 14] was 6. For the same compound, the Dead [3, 14] was 1, the “Mortality Rate” value [3, 14] was 14.29 and the Alive [3, 15] was 3. For the same compound, the Dead [3, 15] was 2, the “Mortality Rate” value [3, 15] was 40 and the “Mortality Rate” value ([1]; All Patients) was 15.70. It also gave an Alive ([1]; All Patients) of 289, a Dead ([1]; All Patients) of 54 and a Mortality ([1]; All Patients) of 16%. For the same compound, the Alive ([1]; Subphenotype A) was 209, the Dead ([1]; Subphenotype A) was 26 and the Mortality ([1]; Subphenotype A) was 11%. For the same compound, the Alive ([1]; Subphenotype B) was 80, the Dead ([1]; Subphenotype B) was 28 and the Mortality ([1]; Subphenotype B) was 26%.

C[C@@H]1C[C@H]2[C@@H]3CCC4=CC(=O)C=C[C@]4(C)[C@@]3(F)[C@@H](O)C[C@]2(C)[C@@]1(O)C(=O)CO [dexamethasone] was tested, and the “28-day Mortality” value ([4]; Subphenotype A) was 54.72%, the “Increase in number of vent free days versus placebo” value ([4]; Subphenotype A) was 45% and the “Vent Free Days” value ([4]; Subphenotype A) was 8.81 days. The “28-day Mortality” value ([4]; Subphenotype B) was 62.50%, the “Increase in number of ventilator free days versus placebo” value ([4]; Subphenotype B) was 101% and the “Vent Free Days” value ([4]; Subphenotype B) was 5.09 days.

In the case of C[C@@H](O)CCCCn1c(=O)c2c(ncn2C)n(C)c1=O [lisofylline], the Mortality ([5]; Subphenotype A, patients who received lisofylline) is reported as 31.4%, the Mortality ([5]; Subphenotype B, patients who got lisofylline) is reported as 40% and the “Dead 90: 0 0, Frequency” value [5, 16] is reported as 36. The “Dead 90: 0 0, Percent” value [5, 16] was 72%, the “Dead 90: 1 0, Frequency” value [5, 16] was 14 and the “Dead 90: 1 0, Percent” value [5, 16] was 28%. The “Dead 90: 0 0, Frequency” value [5, 17] was 51, the “Dead 90: 0 0, Percent” value [5, 17] was 72.86% and the “Dead 90: 1 0, Frequency” value [5, 17] was 19. For the same compound, the “Dead 90: 1 0, Percent” value [5, 17] was 27.14%.

C[C@H]1C[C@@H]2[C@H]([C@@H](O)C[C@@]3(C)[C@H]2CC[C@]3(O)C(=O)CO)[C@@]2(C)C=CC(=O)C=C12 [methylprednisolone] was tested, and the “Dead 90: 1 0, Frequency” value ([6]; Subphenotype A patients) was 5, the “Dead 90: 1 0, Row Percent” value ([6]; Subphenotype A patients, mortality) was 50% and the “Dead 90: 0 0, Frequency” value [6, 18] was 5. For the same compound, the “Dead 90: 0 0, Row Percent” value [6, 18] was 50%, the Mortality ([6]; Subphenotype A) was 50% and the “Dead 90: 1 0, Frequency” value ([6]; Subphenotype B patients) was 18. For the same compound, the “Dead 90: 1 0, Percent” value ([6]; Subphenotype B patients, mortality) was 40%, the “Dead 90: 0 0, Frequency” value [6, 19] was 27 and the “Dead 90: 0 0, Percent” value [6, 19] was 60%. The Mortality ([6]; Subphenotype B) was 40%, the “Dead 90: 0 0, Frequency” value [5, 20] was 24 and the “Dead 90: 0 0, Percent” value [5, 20] was 68.57%. For the same compound, the “Dead 90: 1 0, Frequency” value [5, 20] was 11, the “Dead 90: 1 0, Percent” value [5, 20] was 31.43% and the “Dead 90: 0 0, Frequency” value [5, 21] was 15. The “Dead 90: 0 0, Percent” value [5, 21] was 60%, the “Dead 90: 1 0, Frequency” value [5, 21] was 10 and the “Dead 90: 1 0, Percent” value [5, 21] was 40%.

CCC(C)(C)C(=O)O[C@H]1C[C@@H](C)C=C2C=C[C@H](C)[C@H](CC[C@@H]3C[C@@H](O)CC(=O)O3)[C@H]21 [simvastatin] gave an Alive [2, 7] of 176, a Dead [2, 7] of 26 and an Alive [2, 8] of 126. The Dead [2, 8] was 10, the “Mortality Rate” value [2, 8] was 7.35 and the Alive [2, 9] was 50. For the same compound, the Dead [2, 9] was 16, the “Mortality Rate” value [2, 9] was 24.24 and the Alive [2, 10] was 89. For the same compound, the Dead [2, 10] was 15, the “Mortality Rate” value [2, 10] was 14.42 and the Alive [2, 11] was 63. The Dead [2, 11] was 6, the “Mortality Rate” value [2, 11] was 8.70 and the Alive [2, 12] was 26. The Dead [2, 12] was 9, the “Mortality Rate” value [2, 12] was 25.71 and the Alive [2, 13] was 87. For the same compound, the Dead [2, 13] was 11, the “Mortality Rate” value [2, 13] was 11.22 and the Alive [2, 14] was 63. The Dead [2, 14] was 4, the “Mortality Rate” value [2, 14] was 5.97 and the Alive [2, 15] was 24. For the same compound, the Dead [2, 15] was 7, the “Mortality Rate” value [2, 15] was 22.58 and the Alive [3, 7] was 23. For the same compound, the Dead [3, 7] was 5, the “Mortality Rate” value [3, 7] was 17.86 and the Alive [3, 8] was 15. For the same compound, the Dead [3, 8] was 1, the “Mortality Rate” value [3, 8] was 6.25 and the Alive [3, 9] was 8. For the same compound, the Dead [3, 9] was 4, the “Mortality Rate” value [3, 9] was 33.33 and the Alive [3, 10] was 6. The Dead [3, 10] was 4, the “Mortality Rate” value [3, 10] was 40 and the Alive [3, 11] was 5. The Dead [3, 11] was 1, the “Mortality Rate” value [3, 11] was 16.67 and the Alive [3, 12] was 1. The Dead [3, 12] was 3, the “Mortality Rate” value [3, 12] was 75 and the Alive [3, 13] was 17. For the same compound, the Dead [3, 13] was 1, the “Mortality Rate” value [3, 13] was 5.56 and the Alive [3, 14] was 10. The Dead [3, 14] was 0, the “Mortality Rate” value [3, 14] was 0 and the Alive [3, 15] was 7. The Dead [3, 15] was 1, the “Mortality Rate” value [3, 15] was 12.5 and the “Mortality Rate” value ([1]; All Patients) was 12.87. For the same compound, the Alive ([1]; All Patients) was 167, the Dead ([1]; All Patients) was 26 and the Mortality ([1]; All Patients) was 13%. For the same compound, the Alive ([1]; Subphenotype A) was 122, the Dead ([1]; Subphenotype A) was 10 and the Mortality ([1]; Subphenotype A) was 8%. It also gave an Alive ([1]; Subphenotype B) of 45, a Dead ([1]; Subphenotype B) of 16 and a Mortality ([1]; Subphenotype B) of 26%.
